Source: US11369612B2, “Treatment of RSV with combination product” (Janssen Sciences Ireland Unlimited Company, priority 2017, dated 2022)

System: rgRSV224
Experiment: microbe, parasite or virus in culture
Type: cell-based, RSV
Details: for normalized data (GFP response): average across 12 replicates
Experimental: To evaluate their combined antiviral effect against RSV, in vitro combination studies were performed with Compound A, i.e. 3-({5-chloro-1-[3-(methylsulfonyl)propyl]-1H-indol-2-yl}methyl)-1-(2,2,2-trifluoroethyl)-1,3-dihydro-2H-imidazo[4,5-c]pyridin-2-one, and Compound B, i.e. (1S,2S)-2-[4-[7-cyclopropyl-5-[(1R)-1-methyl-3,4-dihydro-1H-isoquinoline-2-carbonyl]pyrazolo[1,5-a]pyrimidin-2-yl]-3-fluoro-phenyl]cyclopropanecarboxylic acid. In short, 9 concentrations of Compound A were combined with 6 or 7 concentrations of Compound B. HeLa cells were infected with rgRSV224, an engineered RSV strain that encodes for eGFP (Hallak L K, Spillmann D, Collins P L, Peeples M E. Glycosaminoglycan sulfation requirements for respiratory syncytial virus infection; Journal of Virology (2000), 74(22), 10508-13), in the presence of various concentrations of compound A and compound B individually or in combination.
Compound stock solutions were 5 mM in 100% DMSO. First, the compounds were serially diluted in 3-fold dilution series in DMSO. The concentration series were diluted 100-fold in cell culture medium to achieve a combination matrix. 10 μL of these compound solutions were transferred to black 384-well clear-bottom tissue-culture treated plates. Next, 10 μL of a […] HeLa cell suspension was added to achieve 3000 cells per well. Finally, 10 μL of diluted virus stock was added to achieve an MOI of 1. The final DMSO concentration of all wells was 0.5% DMSO. Each combination of compound concentrations was tested in 4 replicates on 3 separate plates, resulting in a total of 12 replicates. The plates were incubated for 3 days at 37° C. in a humidified atmosphere at 5% CO2. The GFP signal was measured with PerkinElmer EnVision apparatus using a 405 nm filter.
The method of Harbron (Statistics in Medicine, 2010, DOI:10.1002/sim3916) was used to assess synergy. Using the Loewe definition, two compounds are characterized as being additive, synergistic or antagonistic by:
where d1 and d2 represent the doses of the two compounds that in combination produce an effect y, and Dy,1 and Dy,2 represent the doses of the two compounds that produce the same effect, y, when administered as a monotherapy. A 3PL model (3-parameter log-logistic model) was used for the monotherapy dose-response data, where the baseline response was fixed at one.
Following Harbron's approach, the following models were fitted to the data: • “Additive”: assuming no interaction between the two compounds • “Uniform”: assuming a constant interaction index τ across all dose combinations • “Linear A”: assuming the interaction index linearly depends on the log 10 dose of compound A: τ=τ1+τ2 log 10(dA) • “Separate A”: assuming the interaction index τ takes a separate value for each dose of compound A
The latter two models were also considered for compound B: • “Linear B”: assuming the interaction index linearly τ depends on the log 10 dose of compound B: τ=τ1+τ2 log 10(dB) • “Separate B”: assuming the interaction index τ takes a separate value for each dose of compound B

SMILES | normalized data (GFP response) (A = 0, B = 4.6) | normalized data (GFP response) (A = 0, B = 14) | normalized data (GFP response) (A = 0, B = 42) | normalized data (GFP response) (A = 0, B = 125) | normalized data (GFP response) (A = 0, B = 375) | normalized data (GFP response) (A = 0, B = 1125) | normalized data (GFP response) (A = 0.19, B = 0) | normalized data (GFP response) (A = 0.57, B = 0) | normalized data (GFP response) (A = 1.7, B = 0) | normalized data (GFP response) (A = 5.1, B = 0) | normalized data (GFP response) (A = 15, B = 0) | normalized data (GFP response) (A = 46, B = 0) | normalized data (GFP response) (A = 139, B = 0) | normalized data (GFP response) (A = 417, B = 0) | normalized data (GFP response) (A = 1250, B = 0) | EC50 (human respiratory syncytial virus, HeLa, read-out: EC50 (dose at τ EC50))
C[C@@H]1c2ccccc2CCN1C(=O)c1cc(C2CC2)n2nc(-c3ccc([C@H]4C[C@@H]4C(=O)O)cc3F)cc2n1 [Compound B, (1S,2S)-2-[4-[7-cyclopropyl-5-[(1R)-1-methyl-3,4-dihydro-1H-isoquinoline-2-carbonyl]pyrazolo[1,5-a]pyrimidin-2-yl]-3-fluoro-phenyl]cyclopropanecarboxylic acid] | 1.13 | 1.04 | 0.37 | 0.07 | 0.00 | 0.00 |  |  |  |  |  |  |  |  |  | 
CS(=O)(=O)CCCn1c(Cn2c(=O)n(CC(F)(F)F)c3ccncc32)cc2cc(Cl)ccc21 [Compound A, 3-({5-chloro-1-[3-(methylsulfonyl)propyl]-1H-indol-2-yl}methyl)-1-(2,2,2-trifluoroethyl)-1,3-dihydro-2H-imidazo[4,5-c]pyridin-2-one] |  |  |  |  |  |  | 1.07 | 1.05 | 0.99 | 0.74 | 0.48 | 0.29 | 0.18 | 0.08 | 0.06 | 13.1 nM
